Target: T1, Recombinant human renin (Homo sapiens, UniProt P00797)
T1 sequence (P00797 67-406): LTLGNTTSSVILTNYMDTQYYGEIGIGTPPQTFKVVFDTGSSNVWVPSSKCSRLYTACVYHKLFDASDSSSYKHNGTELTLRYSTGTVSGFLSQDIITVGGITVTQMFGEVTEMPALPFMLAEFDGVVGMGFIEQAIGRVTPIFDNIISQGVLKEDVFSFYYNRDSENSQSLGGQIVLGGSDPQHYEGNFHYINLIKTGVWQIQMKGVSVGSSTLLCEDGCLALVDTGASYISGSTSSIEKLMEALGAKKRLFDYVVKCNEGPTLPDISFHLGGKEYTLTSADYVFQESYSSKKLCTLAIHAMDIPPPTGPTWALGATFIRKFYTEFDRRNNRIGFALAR
Experiment: Inhibitory activity against human renin (fluorogenic peptide substrate)
Assay type: biochemical
Conditions: 50% inhibitory concentration (IC50) against human renin, 37° C. for 1 hour

Point of comparison: `COC[C@@H]1CNC[C@H](C(=O)N(C2CC2)[C@H](C)c2cn(CCCNC(=O)OC)c(C3CCCCC3)n2)O1` [Example 290], IC50 0.4 nM. Against it:
- COC(=O)NCCCn1nc([C@@H](C)N(C(=O)[C@H]2CNC[C@@H](C(=O)OC)O2)C2CC2)c2ccc(C)nc21 [Example 254] — within 1.5-fold, 0.5 nM
- COC(=O)NCCCn1nc([C@@H](C)N(C(=O)[C@H]2CNC[C@@H](CO)O2)C2CC2)c2ccc(C)nc21 [Example 255] — the same, 0.4 nM
- COC(=O)NCCCn1nc([C@@H](C)N(C(=O)[C@H]2CNC[C@@H](C(=O)N(C)C)O2)C2CC2)c2ccc(C)nc21 [Example 256] — 7.8-fold higher, 3.1 nM
- COC(=O)NCCCn1nc([C@@H](C)N(C(=O)[C@H]2CN[C@@H](COCc3ccccc3)CO2)C2CC2)c2ccc(C)nc21 [Example 257] — 3.2-fold higher, 1.3 nM
- COC(=O)NCCCn1nc([C@@H](C)N(C(=O)[C@H]2CN[C@@H](CO)CO2)C2CC2)c2ccc(C)nc21 [Example 258] — 8-fold higher, 3.2 nM
- CNC(=O)[C@@H]1CNC[C@H](C(=O)N(C2CC2)[C@H](C)c2nn(CCCNC(=O)OC)c3nc(C)ccc23)O1 [Example 259] — 3-fold higher, 1.2 nM
- COC(=O)NCCCc1cc([C@@H](C)N(C(=O)[C@H]2CNCCO2)C2CC2)sc1-c1cc(C(=O)OC)cc(C(F)(F)F)c1 [Example 260] — 6.5-fold higher, 2.6 nM
- COC[C@H]1CO[C@@H](C(=O)N(C2CC2)[C@H](C)c2nn(CCCNC(=O)OC)c3nc(C)ccc23)CN1 [Example 261] — 1.7-fold higher, 0.7 nM
- COC(=O)NCCCc1cc([C@@H](C)N(C(=O)[C@H]2CNCCO2)C2CC2)sc1-c1cc(C(F)(F)F)ccc1C(=O)OC [Example 262] — 9.8-fold higher, 3.9 nM
- COC(=O)NCCCc1cc([C@@H](C)N(C(=O)[C@H]2CNCCO2)C2CC2)sc1-c1cccc(-c2nnn[nH]2)c1 [Example 263] — 2-fold lower, 0.2 nM
- COC(=O)NCCCc1cc([C@@H](C)N(C(=O)[C@H]2CNCCO2)C2CC2)sc1-c1ccccc1O [Example 264] — 2.8-fold higher, 1.1 nM
- COC(=O)NCCCn1nc([C@@H](C)N(C(=O)[C@H]2CN[C@@H](CF)CO2)C2CC2)c2ccc(C)nc21 [Example 265] — 17-fold higher, 6.8 nM
- COC(=O)NCCCc1cc([C@@H](C)N(C(=O)[C@H]2CN[C@@H](C)CO2)C2CC2)cc(OC)n1 [Example 266] — 6.8-fold higher, 2.7 nM
- COC(=O)NCCCc1cc([C@@H](C)N(C(=O)[C@H]2CNCCO2)C2CC2)sc1-c1ccccc1C(=O)OC [Example 268] — within 1.5-fold, 0.5 nM
- COC(=O)NCCCc1cc([C@@H](C)N(C(=O)[C@H]2CNCCO2)C2CC2)sc1-c1ccccc1NS(C)(=O)=O [Example 269] — within 1.5-fold, 0.3 nM
- COC(=O)NCCCc1cc([C@@H](C)N(C(=O)[C@H]2CNCCO2)C2CC2)sc1-c1ccccc1-c1nnn[nH]1 [Example 270] — within 1.5-fold, 0.5 nM
- COC[C@H]1CO[C@@H](C(=O)N(C2CC2)[C@H](C)c2cc(CCCNC(=O)OC)nc(OC)c2)CN1 [Example 271] — 7.5-fold higher, 3 nM
- COC(=O)NCCCc1cc([C@@H](C)N(C(=O)[C@H]2CNCCO2)C2CC2)sc1Cc1nnn[nH]1 [Example 272] — 15-fold higher, 6.1 nM
- CCOC[C@H]1CO[C@@H](C(=O)N(C2CC2)[C@H](C)c2nn(CCCNC(=O)OC)c3nc(C)ccc23)CN1 [Example 273] — 2.5-fold higher, 1 nM
- COC(=O)NCCCc1cc([C@@H](C)N(C(=O)[C@H]2CNCCO2)C2CC2)sc1-c1cccc(F)c1O [Example 274] — within 1.5-fold, 0.5 nM
- COC(=O)NCCCc1cc([C@@H](C)N(C(=O)[C@H]2CNCCO2)C2CC2)sc1-c1cc(F)cc(F)c1O [Example 275] — 2.2-fold higher, 0.9 nM
- COC(=O)NCCCc1cc([C@@H](C)N(C(=O)[C@H]2CNCCO2)C2CC2)sc1-c1ccccc1-c1n[nH]c(=O)o1 [Example 276] — within 1.5-fold, 0.5 nM
- COC[C@@H]1CNC[C@H](C(=O)N(C2CC2)[C@H](C)c2cn(CCCNC(=O)OC)c(-c3ccc(F)cc3)n2)O1 [Example 277] — within 1.5-fold, 0.6 nM
- COC(=O)NCCCn1nc([C@@H](C)N(C(=O)[C@H]2CN[C@@H](COCC(F)(F)F)CO2)C2CC2)c2ccc(C)nc21 [Example 278] — 3-fold higher, 1.2 nM
- COC[C@H]1CO[C@@H](C(=O)N(C2CC2)[C@H](C)c2cn(CCCNC(=O)OC)c(-c3ccc(F)cc3)n2)CN1 [Example 279] — within 1.5-fold, 0.5 nM
- COC(=O)NCCCn1cc([C@@H](C)N(C(=O)[C@H]2CN[C@@H](C)CO2)C2CC2)nc1-c1ccc(F)cc1 [Example 280] — within 1.5-fold, 0.3 nM
- COC(=O)NCCCc1cc([C@@H](C)N(C(=O)[C@H]2CNCCO2)C2CC2)sc1-c1ccccc1-c1cc(O)no1 [Example 281] — the same, 0.4 nM
- COC(=O)NCCCn1cc([C@@H](C)N(C(=O)[C@H]2CNC[C@@H](C)O2)C2CC2)nc1-c1ccc(F)cc1 [Example 282] — within 1.5-fold, 0.6 nM
- COC[C@H]1CO[C@@H](C(=O)N(C2CC2)[C@H](C)c2cc(CCCNC(=O)OC)n(-c3ccccc3)n2)CN1 [Example 283] — 2.2-fold higher, 0.9 nM
- COC(=O)NCCCc1cc([C@@H](C)N(C(=O)[C@H]2CNCCO2)C2CC2)sc1-c1ccccc1CNS(=O)(=O)C(F)(F)F [Example 284] — 3.2-fold higher, 1.3 nM
- COC[C@@H]1CNC[C@H](C(=O)N(C2CC2)[C@H](C)c2cc(CCCNC(=O)OC)n(-c3ccccc3)n2)O1 [Example 285] — within 1.5-fold, 0.6 nM
- COC(=O)NCCCc1cc([C@@H](C)N(C(=O)[C@H]2CNCCO2)C2CC2)sc1-c1ccccc1CNS(=O)(=O)CC(F)(F)F [Example 286] — the same, 0.4 nM
- COC(=O)NCCCc1cc([C@@H](C)N(C(=O)[C@H]2CNCCO2)C2CC2)sc1-c1ccccc1C(=O)NS(C)(=O)=O [Example 287] — 2-fold higher, 0.8 nM
- COC(=O)NCCCc1cc([C@@H](C)N(C(=O)[C@H]2CNCCO2)C2CC2)sc1-c1ccccc1C(=O)NS(=O)(=O)c1ccccc1 [Example 288] — the same, 0.4 nM
- COC[C@H]1CO[C@@H](C(=O)N(C2CC2)[C@H](C)c2cn(CCCNC(=O)OC)c(C3CCCCC3)n2)CN1 [Example 289] — within 1.5-fold, 0.5 nM
- COC(=O)NCCCn1cc([C@@H](C)N(C(=O)[C@H]2CNCCO2)C2CC2)nc1C1CCOCC1 [Example 291] — within 1.5-fold, 0.6 nM
- COC[C@@H]1CNC[C@H](C(=O)N(C2CC2)[C@H](C)c2cn(CCCNC(=O)OC)c3ncccc23)O1 [Example 292] — the same, 0.4 nM
- COC(=O)NCCCn1nc([C@@H](C)N(C(=O)[C@H]2CNC[C@@H](C(C)(C)O)O2)C2CC2)c2ccc(C)nc21 [Example 293] — 19-fold higher, 7.7 nM
- CCCCCc1cc([C@@H](C)N(C(=O)[C@H]2CNC[C@@H](C)O2)C2CC2)sc1-c1ccccc1-c1nn[nH]n1 [Example 294] — 15-fold higher, 6 nM
- COC[C@H]1CO[C@@H](C(=O)N(C2CC2)[C@H](C)c2cn(CCCNC(=O)OC)c3ncccc23)CN1 [Example 295] — 3.8-fold higher, 1.5 nM
- C[C@@H]1CNC[C@H](C(=O)N(C2CC2)[C@H](C)c2cc(Cc3ccccc3)c(-c3ccccc3-c3nnn[nH]3)s2)O1 [Example 296] — 18-fold higher, 7 nM
- COC(=O)NCCCc1cc([C@@H](C)N(C(=O)[C@H]2CNCCO2)C2CC2)sc1-c1ccccc1NS(=O)(=O)C(F)(F)F [Example 297] — within 1.5-fold, 0.5 nM
- COC(=O)NCCCc1nc(OC)cc([C@@H](C)N(C(=O)[C@H]2CNCCO2)C2CC2)n1 [Example 298] — 8.8-fold higher, 3.5 nM
- COC(=O)NCCCn1cc([C@@H](C)N(C(=O)[C@H]2CN[C@@H](COCc3ccccc3)CO2)C2CC2)nc1C1CCOCC1 [Example 299] — 2.2-fold higher, 0.9 nM
- COC[C@H]1CO[C@@H](C(=O)N(C2CC2)[C@H](C)c2cc(CCCNC(=O)OC)n(C(C)C)n2)CN1 [Example 300] — 7-fold higher, 2.8 nM
- COC[C@@H]1CNC[C@H](C(=O)N(C2CC2)[C@H](C)c2cc(CCCNC(=O)OC)n(C(C)C)n2)O1 [Example 301] — within 1.5-fold, 0.6 nM
- COC[C@H]1CO[C@@H](C(=O)N(C2CC2)[C@H](C)c2cc(CCCNC(=O)OC)n(C3CCOCC3)n2)CN1 [Example 302] — 4-fold higher, 1.6 nM
- COC[C@@H]1CNC[C@H](C(=O)N(C2CC2)[C@H](C)c2cc(CCCNC(=O)OC)n(C3CCOCC3)n2)O1 [Example 303] — 2-fold higher, 0.8 nM
- COCCCCc1cc([C@@H](C)N(C(=O)[C@H]2CNC[C@@H](COC)O2)C2CC2)cc(OC)n1 [Example 304] — 1.7-fold higher, 0.7 nM
- COC(=O)NCCCn1nc([C@@H](C)N(C(=O)[C@H]2CN[C@@H](CC(F)F)CO2)C2CC2)c2ccc(C)nc21 [Example 305] — 3-fold higher, 1.2 nM
- COC(=O)NCCCc1cc([C@@H](C)N(C(=O)[C@H]2CN[C@@H](CC(F)F)CO2)C2CC2)cc(OC)n1 [Example 306] — 4-fold higher, 1.6 nM
- COC(=O)NCCCn1nc([C@@H](C)N(C(=O)[C@H]2CN[C@H](CC(F)F)CO2)C2CC2)c2ccc(C)nc21 [Example 307] — 16-fold higher, 6.6 nM
- COC(=O)NCCCc1cc([C@H](C)N(C(=O)[C@H]2CNC[C@@H](CO)O2)C2CC2)cc(OC)n1 [Example 308] — within 1.5-fold, 0.5 nM
- COC[C@H]1CO[C@@H](C(=O)N(C2CC2)[C@@H](C)c2cnc(OC)c(CCCNC(=O)OC)c2)CN1 [Example 309] — 18-fold higher, 7.1 nM
- COC[C@@H]1CNC[C@H](C(=O)N(C2CC2)[C@@H](C)c2cnc(OC)c(CCCNC(=O)OC)c2)O1 [Example 310] — the same, 0.4 nM
- CCOC[C@@H]1CNC[C@H](C(=O)N(C2CC2)[C@@H](C)c2cc(CCCNC(=O)OC)nc(OC)c2)O1 [Example 311] — the same, 0.4 nM
- CCOC[C@@H]1CNC[C@H](C(=O)N(C2CC2)[C@@H](C)c2nn(CCCNC(=O)OC)c3nc(C)ccc23)O1 [Example 312] — 1.7-fold higher, 0.7 nM
- COC(=O)NCCCn1cc([C@H](C)N(C(=O)[C@H]2CNCCO2)C2CC2)nc1Oc1ccccc1 [Example 313] — 6.2-fold higher, 2.5 nM
- COC(=O)NCCCc1cc([C@H](C)N(C(=O)[C@H]2CNC[C@@H](CF)O2)C2CC2)cc(OC)n1 [Example 314] — within 1.5-fold, 0.5 nM
- COC(=O)NCCCc1cc([C@H](C)N(C(=O)[C@H]2CNCCO2)C2CC2)cnc1C(C)C [Example 315] — 2.5-fold higher, 1 nM
- COC(=O)NCCCc1cc([C@H](C)N(C(=O)[C@H]2CNC[C@@H](CC#N)O2)C2CC2)cc(OC)n1 [Example 316] — 3.5-fold higher, 1.4 nM

— patent US9556159B2, “Renin inhibitor” (MITSUBISHI TANABE PHARMA CORPORATION, priority 2012, dated 2017)
